Reference: patent US12441726B2, “Compounds and uses thereof” (Foghorn Therapeutics Inc., priority 2020, dated 2025)

Legend:
BRM = BRM (Homo sapiens, UniProt P51531); assay: ATPase catalytic activity assay (ADP-Glo), BRM; details: 30 nM BRM, 400 μM ATP; for IC50: BRM ATPase: IC50 (uM)
Procedure: The ATPase catalytic activity of BRM or BRG-1 was measured by an in vitro biochemical assay using ADP-Glo™ (Promega, V9102). The ADP-Glo™ kinase assay is performed in two steps once the reaction is complete. The first step is to deplete any unconsumed ATP in the reaction. The second step is to convert the reaction product ADP to ATP, which will be utilized by the luciferase to generate luminesce and be detected by a luminescence reader, such as Envision.
Then following addition of 5 μL of ADP-Glo™ Reagent provided in the kit, the reaction incubates at room temperature for 40 minutes. Then 10 μL of Kinase Detection Reagent provided in the kit is added to convert ADP to ATP, and the reaction incubates at room temperature for 60 minutes. Finally, luminescence measurement is collected with a plate-reading luminometer, such as Envision.

BRG-1 = BRG-1 (Homo sapiens, UniProt P51532); assay: ATPase catalytic activity assay (ADP-Glo), BRG-1; details: for Emax: 1 h, read-out: BRG1 Max % Inhibition, ADP-Glo, 30 nM BRG-1, 400 μM ATP
BRG-1, sequence (P51532 whole entry): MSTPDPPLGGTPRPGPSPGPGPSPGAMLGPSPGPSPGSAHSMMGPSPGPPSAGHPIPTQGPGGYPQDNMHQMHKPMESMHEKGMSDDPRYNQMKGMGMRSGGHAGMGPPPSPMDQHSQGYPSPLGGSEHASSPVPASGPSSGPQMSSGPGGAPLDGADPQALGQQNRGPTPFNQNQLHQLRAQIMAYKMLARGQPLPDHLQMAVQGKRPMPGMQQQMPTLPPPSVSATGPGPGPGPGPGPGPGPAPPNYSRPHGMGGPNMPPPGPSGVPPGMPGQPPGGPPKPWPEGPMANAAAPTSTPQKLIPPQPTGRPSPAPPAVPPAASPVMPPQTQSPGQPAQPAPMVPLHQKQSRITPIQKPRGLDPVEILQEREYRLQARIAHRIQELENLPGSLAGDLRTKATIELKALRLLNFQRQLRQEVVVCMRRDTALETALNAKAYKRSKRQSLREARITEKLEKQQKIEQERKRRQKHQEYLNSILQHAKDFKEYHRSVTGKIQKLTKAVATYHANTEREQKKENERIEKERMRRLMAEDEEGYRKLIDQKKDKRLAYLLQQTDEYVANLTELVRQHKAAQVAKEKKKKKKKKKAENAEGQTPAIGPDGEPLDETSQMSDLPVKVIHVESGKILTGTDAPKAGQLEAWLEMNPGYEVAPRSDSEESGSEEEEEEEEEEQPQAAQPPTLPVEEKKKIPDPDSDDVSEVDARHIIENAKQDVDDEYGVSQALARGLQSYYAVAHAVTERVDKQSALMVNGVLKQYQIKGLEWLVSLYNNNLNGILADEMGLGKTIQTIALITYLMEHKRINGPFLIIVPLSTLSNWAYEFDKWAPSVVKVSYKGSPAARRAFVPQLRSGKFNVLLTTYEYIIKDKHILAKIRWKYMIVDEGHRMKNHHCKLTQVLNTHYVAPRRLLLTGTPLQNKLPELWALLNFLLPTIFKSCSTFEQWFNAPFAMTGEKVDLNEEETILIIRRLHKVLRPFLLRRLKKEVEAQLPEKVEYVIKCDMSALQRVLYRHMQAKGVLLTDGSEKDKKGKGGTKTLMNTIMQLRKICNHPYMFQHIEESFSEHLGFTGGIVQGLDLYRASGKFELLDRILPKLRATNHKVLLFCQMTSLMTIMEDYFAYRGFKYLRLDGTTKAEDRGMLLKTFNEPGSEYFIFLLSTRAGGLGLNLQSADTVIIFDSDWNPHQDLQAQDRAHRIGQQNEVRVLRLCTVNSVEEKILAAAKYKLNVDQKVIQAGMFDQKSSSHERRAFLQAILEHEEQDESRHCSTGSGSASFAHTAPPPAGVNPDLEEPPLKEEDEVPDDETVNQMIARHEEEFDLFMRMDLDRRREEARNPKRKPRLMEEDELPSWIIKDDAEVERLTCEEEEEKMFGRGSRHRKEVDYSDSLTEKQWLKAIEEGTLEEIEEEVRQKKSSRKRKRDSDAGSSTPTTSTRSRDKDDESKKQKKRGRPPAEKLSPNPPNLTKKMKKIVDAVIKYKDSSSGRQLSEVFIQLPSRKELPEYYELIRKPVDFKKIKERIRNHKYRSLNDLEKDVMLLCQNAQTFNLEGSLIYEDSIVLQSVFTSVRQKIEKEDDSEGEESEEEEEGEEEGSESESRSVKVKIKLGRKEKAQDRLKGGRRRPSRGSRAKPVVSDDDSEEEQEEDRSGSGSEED

BRM, sequence (P51531 whole entry): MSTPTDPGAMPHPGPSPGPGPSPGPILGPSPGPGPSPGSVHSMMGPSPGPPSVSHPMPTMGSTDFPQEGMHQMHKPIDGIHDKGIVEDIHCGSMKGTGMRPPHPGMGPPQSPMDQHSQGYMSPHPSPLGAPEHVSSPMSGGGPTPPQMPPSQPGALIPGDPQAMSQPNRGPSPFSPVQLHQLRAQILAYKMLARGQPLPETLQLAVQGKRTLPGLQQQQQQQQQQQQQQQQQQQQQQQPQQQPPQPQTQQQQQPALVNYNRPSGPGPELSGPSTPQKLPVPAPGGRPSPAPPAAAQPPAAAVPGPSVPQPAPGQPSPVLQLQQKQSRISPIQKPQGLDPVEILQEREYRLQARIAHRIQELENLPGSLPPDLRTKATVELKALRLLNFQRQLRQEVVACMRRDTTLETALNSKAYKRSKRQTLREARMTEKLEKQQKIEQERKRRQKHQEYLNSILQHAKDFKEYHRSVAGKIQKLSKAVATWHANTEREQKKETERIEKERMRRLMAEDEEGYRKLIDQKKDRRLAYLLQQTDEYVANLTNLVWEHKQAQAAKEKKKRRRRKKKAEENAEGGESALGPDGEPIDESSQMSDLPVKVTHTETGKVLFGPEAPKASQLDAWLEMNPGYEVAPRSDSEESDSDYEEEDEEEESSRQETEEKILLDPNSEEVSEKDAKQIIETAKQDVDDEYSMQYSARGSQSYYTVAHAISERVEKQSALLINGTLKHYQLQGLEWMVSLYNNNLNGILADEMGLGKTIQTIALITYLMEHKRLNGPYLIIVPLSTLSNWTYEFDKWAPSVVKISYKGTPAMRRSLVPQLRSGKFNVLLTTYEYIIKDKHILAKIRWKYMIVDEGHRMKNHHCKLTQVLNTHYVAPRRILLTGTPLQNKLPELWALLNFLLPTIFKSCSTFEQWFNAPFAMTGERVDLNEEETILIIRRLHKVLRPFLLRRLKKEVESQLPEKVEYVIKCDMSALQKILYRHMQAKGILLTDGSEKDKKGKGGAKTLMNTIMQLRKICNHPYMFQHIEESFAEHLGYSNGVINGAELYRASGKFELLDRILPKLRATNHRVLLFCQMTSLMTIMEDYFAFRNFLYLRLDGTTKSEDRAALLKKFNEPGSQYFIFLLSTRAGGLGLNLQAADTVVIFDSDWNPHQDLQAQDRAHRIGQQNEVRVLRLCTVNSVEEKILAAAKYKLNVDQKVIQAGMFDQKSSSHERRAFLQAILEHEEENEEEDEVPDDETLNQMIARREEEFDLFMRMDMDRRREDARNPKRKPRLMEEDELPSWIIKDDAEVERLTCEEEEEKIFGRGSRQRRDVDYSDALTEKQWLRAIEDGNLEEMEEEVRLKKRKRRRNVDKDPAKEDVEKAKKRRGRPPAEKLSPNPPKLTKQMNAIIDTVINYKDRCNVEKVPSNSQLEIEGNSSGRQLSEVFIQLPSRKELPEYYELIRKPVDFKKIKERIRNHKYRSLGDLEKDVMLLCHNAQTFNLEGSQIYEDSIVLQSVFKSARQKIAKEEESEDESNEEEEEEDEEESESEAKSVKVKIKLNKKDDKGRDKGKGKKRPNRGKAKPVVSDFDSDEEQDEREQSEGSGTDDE

## Cc1cncc(-c2ccc3cnc(CNC(=O)c4ccc5c(c4)[C@](C)(C#N)COC5)cc3n2)n1 [Compound 408]
BRM
  BRM Max % Inhibition: 91%
  IC50: 0.1 to 0.5 µM
BRG-1
  IC50: 500 to 1000 nM
  Emax: 65%

## COC1CN(c2cncc(-c3ccc4cnc(CNC(=O)c5ccc6c(c5)[C@](C)(C#N)COC6)cc4n3)n2)C1 [Compound 409]
BRM
  BRM Max % Inhibition: 96%
  IC50: < 0.1 µM
BRG-1
  IC50: 100 to 500 nM
  Emax: 95%

## CC(C)(O)c1cccc(-c2ccc3cnc(CNC(=O)c4ccc5c(c4)[C@](C)(C#N)COC5)cc3n2)n1 [Compound 410]
BRM
  BRM Max % Inhibition: 93%
  IC50: 0.1 to 0.5 µM
BRG-1
  IC50: 500 to 1000 nM
  Emax: 75%

## C[C@@]1(C#N)COCc2ccc(C(=O)NCc3cc4nc(-n5cc(F)cn5)ccc4cn3)cc21 [Compound 411]
BRM
  BRM Max % Inhibition: 91%
  IC50: 0.1 to 0.5 µM
BRG-1
  IC50: 500 to 1000 nM
  Emax: 50%

## C[C@@]1(C#N)COCc2ccc(C(=O)NCc3cc4nc(-c5ccnc(N6CCC6)c5F)ccc4cn3)cc21 [Compound 412]
BRM
  BRM Max % Inhibition: 99%
  IC50: < 0.1 µM
BRG-1
  IC50: 100 to 500 nM
  Emax: 98%

## C[C@@]1(F)COCc2ncc(C(=O)NCc3cc4nc(-c5ccccc5)ccc4cn3)cc21 [Compound 413]
BRM
  BRM Max % Inhibition: 92%
  IC50: 0.1 to 0.5 µM
BRG-1
  IC50: 500 to 1000 nM
  Emax: 51%

## C[C@@]1(C#N)COCc2ccc(C(=O)NCc3cc4nc(-c5cnc(N6CCC6)cn5)ccc4cn3)cc21 [Compound 414]
BRM
  BRM Max % Inhibition: 91%
  IC50: 0.1 to 0.5 µM
BRG-1
  IC50: 500 to 1000 nM
  Emax: 67%

## C[C@@]1(C#N)COCc2ccc(C(=O)NCc3cc4nc(-c5cncc(N6CCCC6)n5)ccc4cn3)cc21 [Compound 415]
BRM
  BRM Max % Inhibition: 99%
  IC50: < 0.1 µM
BRG-1
  IC50: < 100 nM
  Emax: 95%

## C[C@@]1(C#N)COCc2ccc(C(=O)NCc3cc4nc(-c5ccnc(N6CCOCC6)n5)ccc4cn3)cc21 [Compound 416]
BRM
  BRM Max % Inhibition: 99%
  IC50: < 0.1 µM
BRG-1
  IC50: 100 to 500 nM
  Emax: 95%

## C[C@@]1(C#N)COCc2ccc(C(=O)NCc3cc4nc(-c5ccnc(C6CC6)n5)ccc4cn3)cc21 [Compound 417]
BRM
  BRM Max % Inhibition: 97%
  IC50: < 0.1 µM
BRG-1
  IC50: 100 to 500 nM
  Emax: 91%

## COC1(c2cccc(-c3ccc4cnc(CNC(=O)c5ccc6c(c5)[C@](C)(C#N)COC6)cc4n3)c2)COC1 [Compound 418]
BRM
  BRM Max % Inhibition: 90%
  IC50: 0.1 to 0.5 µM
BRG-1
  IC50: > 1000 nM
  Emax: 51%

## COC1(c2cccc(-c3ccc4cnc(CNC(=O)c5ccc6c(c5)[C@](C)(C#N)COC6)cc4n3)n2)COC1 [Compound 419]
BRM
  BRM Max % Inhibition: 93%
  IC50: 0.1 to 0.5 µM
BRG-1
  IC50: 500 to 1000 nM
  Emax: 64%

## C[C@@]1(C#N)COCc2ccc(C(=O)NCc3cc4nc(-c5ccnc(C6CCC6)n5)ccc4cn3)cc21 [Compound 420]
BRM
  BRM Max % Inhibition: 98%
  IC50: < 0.1 µM
BRG-1
  IC50: 100 to 500 nM
  Emax: 89%

## CN1CC(c2cccc(-c3ccc4cnc(CNC(=O)c5ccc6c(c5)[C@](C)(C#N)COC6)cc4n3)c2)C1 [Compound 421]
BRM
  BRM Max % Inhibition: 84%
  IC50: 0.1 to 0.5 µM
BRG-1
  IC50: > 1000 nM
  Emax: 37%

## COC1CCN(c2nccc(-c3ccc4cnc(CNC(=O)c5ccc6c(c5)[C@](C)(C#N)COC6)cc4n3)n2)C1 (some centres unmarked) [Compound 422]
BRM
  BRM Max % Inhibition: 99%
  IC50: < 0.1 µM
BRG-1
  IC50: < 100 nM
  Emax: 97%

## COc1cncc(-c2ccc3cnc(CNC(=O)c4ccc5c(c4)[C@](C)(C#N)COC5)cc3n2)n1 [Compound 423]
BRM
  BRM Max % Inhibition: 98%
  IC50: < 0.1 µM
BRG-1
  IC50: 100 to 500 nM
  Emax: 89%

## CN(C)c1nccc(-c2ccc3cnc(CNC(=O)c4ccc5c(c4)[C@](C)(C#N)COC5)cc3n2)n1 [Compound 424]
BRM
  BRM Max % Inhibition: 99%
  IC50: < 0.1 µM
BRG-1
  IC50: < 100 nM
  Emax: 96%

## C[C@@]1(C#N)COCc2ccc(C(=O)NCc3cc4nc(-n5cc(F)c(N6CCC6)n5)ccc4cn3)cc21 [Compound 425]
BRM
  BRM Max % Inhibition: 98%
  IC50: < 0.1 µM
BRG-1
  IC50: 100 to 500 nM
  Emax: 93%

## C[C@@]1(C#N)COCc2ccc(C(=O)NCc3cc4nc(-n5ccc(N6CCC6)n5)ccc4cn3)cc21 [Compound 426]
BRM
  BRM Max % Inhibition: 97%
  IC50: 0.1 to 0.5 µM
BRG-1
  IC50: 500 to 1000 nM
  Emax: 78%

## CN1Cc2nc(-c3ccc4cnc(CNC(=O)c5ccc6c(c5)[C@](C)(C#N)COC6)cc4n3)ccc2C1=O [Compound 427]
BRM
  BRM Max % Inhibition: 99%
  IC50: < 0.1 µM
BRG-1
  IC50: 100 to 500 nM
  Emax: 87%

## C[C@@]1(F)COCc2c(F)cc(C(=O)NCc3cc4nc(-c5ccccc5)ccc4cn3)cc21 [Compound 428]
BRM
  BRM Max % Inhibition: 97%
  IC50: 0.1 to 0.5 µM
BRG-1
  IC50: 500 to 1000 nM
  Emax: 65%

## C[C@@]1(F)COCc2ccc(C(=O)NCc3cc4nc(-c5ccnc(N6CCC6)n5)ccc4cn3)cc21 [Compound 429]
BRM
  BRM Max % Inhibition: 99%
  IC50: < 0.1 µM
BRG-1
  IC50: 100 to 500 nM
  Emax: 93%

## COC1CN(c2nccc(-c3ccc4cnc(CNC(=O)c5ccc6c(c5)[C@](C)(C#N)COC6)cc4n3)n2)C1 [Compound 430]
BRM
  BRM Max % Inhibition: 100%
  IC50: < 0.1 µM
BRG-1
  IC50: 100 to 500 nM
  Emax: 92%

## C[C@@]1(C#N)COCc2ccc(C(=O)NCc3cc4nc(-c5ccccc5OCCO)ccc4cn3)cc21 [Compound 431]
BRM
  BRM Max % Inhibition: 86%
  IC50: 0.1 to 0.5 µM
BRG-1
  IC50: 500 to 1000 nM
  Emax: 53%

## COc1nccc(-c2ccc3cnc(CNC(=O)c4ccc5c(c4)[C@](C)(C#N)COC5)cc3n2)c1F [Compound 432]
BRM
  BRM Max % Inhibition: 98%
  IC50: < 0.1 µM
BRG-1
  IC50: 100 to 500 nM
  Emax: 88%

## Cc1nn(-c2ccc3cnc(CNC(=O)c4ccc5c(c4)[C@](C)(C#N)COC5)cc3n2)cc1F [Compound 433]
BRM
  BRM Max % Inhibition: 96%
  IC50: 0.1 to 0.5 µM
BRG-1
  IC50: 500 to 1000 nM
  Emax: 59%

## Cn1ccc2c(F)cc(-c3ccc4cnc(CNC(=O)c5ccc6c(c5)[C@](C)(C#N)COC6)cc4n3)cc2c1=O [Compound 434]
BRM
  BRM Max % Inhibition: 100%
  IC50: < 0.1 µM
BRG-1
  IC50: < 100 nM
  Emax: 92%

## C[C@@]1(C#N)COCc2ccc(C(=O)NCc3cc4nc(-c5cncc(N6CCOCC6)n5)ccc4cn3)cc21 [Compound 435]
BRM
  BRM Max % Inhibition: 100%
  IC50: < 0.1 µM
BRG-1
  IC50: 100 to 500 nM
  Emax: 93%

## C[C@@]1(C#N)COCc2ccc(C(=O)NCc3cc4nc(-c5cnc6cccnn56)ccc4cn3)cc21 [Compound 436]
BRM
  BRM Max % Inhibition: 100%
  IC50: < 0.1 µM
BRG-1
  IC50: 100 to 500 nM
  Emax: 85%

## C[C@@]1(C#N)COCc2ccc(C(=O)NCc3cc4nc(-c5ccnc(N6CCC6)c5)ccc4cn3)cc21 [Compound 437]
BRM
  BRM Max % Inhibition: 99%
  IC50: < 0.1 µM
BRG-1
  IC50: 100 to 500 nM
  Emax: 87%

## C[C@@]1(C#N)COCc2ccc(C(=O)NCc3cc4nc(-c5ccncc5)sc4cn3)cc21 [Compound 438]
BRM
  BRM Max % Inhibition: 84%
  IC50: 0.1 to 0.5 µM
BRG-1
  IC50: > 1000 nM
  Emax: 28%

## C[C@@]1(C#N)COCc2ccc(C(=O)NCc3cc4nc(-c5cccnc5)sc4cn3)cc21 [Compound 439]
BRM
  BRM Max % Inhibition: 88%
  IC50: 0.1 to 0.5 µM
BRG-1
  IC50: > 1000 nM
  Emax: 36%
